Data: patent US20220338473A1, “USE OF BENZYL ALCOHOL AS A HERBICIDE” (INNOVI, priority 2019, published 2022)

Key:
Horned pansy = assay: Systemic action through contact with the underground parts (saucer, capillary uptake); assay type: in vivo; conditions: potted, saucer containing 40 g pure benzyl alcohol, uptake via roots
Description: The assays were carried out on potted plants.
Pure benzyl alcohol was used (PanReac AppliChem—ITW Reagents).
Two potted plants (Horned pansy) were each placed in a saucer containing respectively 40 g pure benzyl alcohol or 40 g water (control). By capillary action, the liquids contained in the saucer are absorbed by the earth and come into contact with the roots.
The systemic effectiveness time, the collapsing of the plant, the colour intensity and the diameter of the plant were measured as indicated in Examples 1 and 2.

Grass = assay: Non-selective activity on herbaceous plants (spraying, potted); assay type: in vivo, grass of the ryegrass type; conditions: 4 g benzyl alcohol (200 L/Ha) in 8 g total (400 L/Ha)
Description: The non-selective character of benzyl alcohol was studied on 3 common varieties of herbaceous plants, two dicotyledons (dandelions and clover) and a monocotyledon (grass).
The grass of the ryegrass type makes it possible to confirm that the spectrum of action of benzyl alcohol is broad.
The assays were carried out on potted plants. The application of the product is carried out with a trigger spray bottle which makes it possible to spray 1 g of product per spraying, as microdroplets.
The treated plants are sprinkled with different quantities of water comprising different quantities of pure benzyl alcohol (PanReac AppliChem—ITW Reagents). The untreated (control) plants are sprinkled with the same total quantity of water only.
The plants are observed at the following times: T0, 6 h, 24 h, 48 h, 72 h, 96 h. The collapsing of the plant, the colour intensity and the diameter of the plant were measured as indicated in Example 1.

[1] = test system: Chenopodium album (CHEAL); assay: Systemic action through contact with the leaves: metabolic activity by epifluorescence microscopy; assay type: in vivo; conditions: 20 L/ha, control group 5
Description: Chenopodium album (CHEAL) seeds are sown in Petri dishes in vermiculite moistened with a 0.2% solution of […]. The dishes are incubated in a climatic chamber at 15° C./20° C. night/day and 14 h photoperiod up to the stage of emergence of the cotyledons. The plantlets are then transplanted, at a rate of 6 plants per pot and 5 pots in each of the groups (treated group and control group), in a mixture of agricultural earth:vermiculite (50:50).
The plantlets are cultivated under the same environmental conditions as previously up to the stage BBCH12-14.
The plants are treated with benzyl alcohol at the stage BBCH12-14 with a dose of 20 L/ha benzyl alcohol with 660 g/I water, i.e. 13.2 kg benzyl alcohol/ha.
The product is applied in a volume corresponding to 300 L/ha using a spraying bench equipped with agricultural nozzles (Turbo Teejet TTII0015).
After treatment, the plants are returned to cultivation in a climatic chamber at 15° C./20° C. night/day and 14 h photoperiod.
A control group is not treated and only receives water.
[…] observations were carried out by epifluorescence microscopy on the leaves and the roots of the treated plants and the control plants, 24 h and 7 days after treatment on the leaves.
The results observed on the epifluorescence microscopy images are reported in Tables 11 and 12 below, in which a mark of 0 to 5 is attributed depending on the intensity and the surface area of the fluorescence observed, where 0=no metabolic activity, and 5=complete metabolic activity.
Before uprooting and epifluorescence microscopy analysis, the treated plants were divided into 2 groups: • Group 1: plants not showing or showing few symptoms of drying on the treated area (leaf) • Group 2: plants having a dry leaf on the treated area (leaf)

[2] = 24 h after leaf spraying, Group 1 (no or few symptoms of drying)
[3] = 24 h after leaf spraying, Group 2 (dry leaf on treated area)
[4] = 7 days after leaf spraying, Group 1 (no or few symptoms of drying)
[5] = 7 days after leaf spraying, Group 2 (dry leaf on treated area)

In the case of `OCc1ccccc1` [benzyl alcohol], the “Collapsing: time to pass from a score of 5 to a score of 1” value (Horned pansy) is reported as 72 h, the “Colour intensity: time to pass from a score of 5 to a score of 1” value (Horned pansy) is reported as 48 h and the “Diameter of the plant: time to pass from a score of 5 to a score of 1” value (Horned pansy) is reported as 96 h. For the same molecule, the “Systemic effectiveness time: the whole plant is affected” value (Horned pansy) was 48 h, the “Collapsing (score and time): time to pass from score 5 (T0) to score 1” value (Grass) was 1 to 48 h and the “Colour intensity (score and time): time to pass from score 5 (T0) to score 1” value (Grass) was 1 to 24 h. For the same molecule, the “Diameter (score and time): time to pass from score 5 (T0) to score 1” value (Grass) was 1 to 48 h, the “Metabolic activity on the leaves (mark 0 to 5; 0=no, 5=complete metabolic activity)” value [1, 2] was 1 and the “Metabolic activity on the roots (mark 0 to 5; 0=no, 5=complete metabolic activity)” value [1, 2] was 2. The “Metabolic activity on the leaves (mark 0 to 5; 0=no, 5=complete metabolic activity)” value [1, 3] was 1, the “Metabolic activity on the roots (mark 0 to 5; 0=no, 5=complete metabolic activity)” value [1, 3] was 2.5 and the “Metabolic activity on the leaves (mark 0 to 5; 0=no, 5=complete metabolic activity)” value [1, 4] was 0.5. For the same molecule, the “Metabolic activity on the roots (mark 0 to 5; 0=no, 5=complete metabolic activity)” value [1, 4] was 1.5, the “Metabolic activity on the leaves (mark 0 to 5; 0=no, 5=complete metabolic activity)” value [1, 5] was 0 and the “Metabolic activity on the roots (mark 0 to 5; 0=no, 5=complete metabolic activity)” value [1, 5] was 2.
